# Assay results taken from patent publication US20220289794A1, “SYNTHETIC ANTIMICROBIAL PEPTIDES” (priority 2019, published 2022).
# Several values for one entry are separate records, joined by “and”; a condition that tells them apart may be missing. Equal entries are not always repeated. Non-standard residues stand in square brackets, D forms with d. Residues, ends and D or L forms follow the SMILES beside them. 2Nal = N[C@@H](Cc1ccc2ccccc2c1)C(=O)O
# Key:
# [1] = system: Clostridium difficile (ATCC 700057); assay: MIC determination, broth microdilution (CLSI); assay type: cell-based
# [2] = system: Clostridium difficile (NAP1/027); assay: MIC determination, broth microdilution (CLSI); assay type: cell-based
# [3] = system: Methicillin-resistant Staphylococcus aureus MRSA (ATCC BAA-1556); conditions: ATCC BAA-1556
# [4] = system: S. aureus ATCC 29213; conditions: ATCC 29213
# [5] = system: Pseudomonas aeruginosa (ATCC 27883); conditions: ATCC 27883
# [6] = system: Escherichia coli (ATCC 25922); conditions: ATCC 25922
# [7] = system: human red blood cells; parameters: unit not given beside the values
# [8] = system: Staphylococcus aureus ATCC 33592 (MRSA) biofilm
# Procedure: (§3) Bacteria. The bacterial strains employed in these assays were obtained from the American Type Culture Collection (ATCC). Each strain was propagated as recommended by the ATCC and each strain was stored as a frozen glycerol stock at −80° C.
# (§4) Bacterial Propagation. […] Following the incubation, the culture was diluted to an optical density 625 nm (OD625) of 0.1 in cation adjusted Mueller Hinton Broth (CAMHB), which is equivalent to 1×10^8 CFU/mL. The culture was further diluted to 1×10^6 CFU/mL which was used for the assay.
# (§5) Determination of the Temporal Effects of SPL7013 Addition to Inhibit Biofilm Formation. Each strain of bacteria was adjusted to a concentration of 1×10^6 CFU/mL and added to a 96-well flat-bottomed plate in a volume of 100 mL. One-hundred microliters (100 mL) of each compound at 10 concentrations was added in triplicate wells. The cultures were incubated for 24 hours at 37° C. under the appropriate growth conditions for each organism. Following the incubation, the media was removed, and the formed biofilms were fixed for 1 hour at 60° C. Two-hundred microliters (200 mL) of 0.06% crystal violet was added to the wells for 5 to 10 minutes and the wells were then gently washed three times with deionized H2O to remove the crystal violet. Following crystal violet staining 200 mL of 70% ethanol was added to the wells.
# [9] = system: P. aeruginosa strain ATCC 47085 biofilm
# Procedure: as §3, §4, §5
# [10] = system: Escherichia coli (ATCC 25922); assay type: cell-based
# Procedure: (§1) All bacteria pathogens tested clinically reported multi-drug resistant strains. The antibacterial activity was tested against Gram-negative strains namely; Pseudomonas aeruginosa (PSA), Klebsiella pneumoniae (KPC), Escherichia coli (E. coli) and Gram-positive Methicillin-resistant Staphylococcus aureus (MRSA). The minimum inhibitory concentration (MIC) is the lowest concentration of the antibiotic that inhibits microbial growths. MIC is determined by visual inspection or use of spectrophotometer plate reader to determine media turbidity. On the other hand, the minimum bactericidal concentration (MBC) is the lowest concentration that kills […] of bacterial growth. Cytotoxicity of peptides in the hepatic cell line, human skin fibroblast cell line, heart/myocardium cells, and human lung fibroblast cells is shown in FIGS. 36-46). […] (IFX-315)-Au-NP with antibiotics are shown in FIGS. 49-58 when the gold nanoparticles are formed by the peptide followed by addition of the antibiotic. […] (IFX-301) with antibiotics (1:1 ratio) first and then used in the synthesis of Au-NP in antibacterial activities is shown in FIGS. 59-68.
# (§2) The MBC is identified by determining the lowest concentration of antibacterial agent that reduces the viability (concentration of peptides necessary to achieve a bactericidal effect) of the initial bacterial inoculum by ≥99.9%.
# [11] = system: Klebsiella pneumoniae (ATCC BAA-1705); assay type: cell-based
# Procedure: as §1, §2
# [12] = system: Methicillin-resistant Staphylococcus aureus MRSA (ATCC BAA-1556); assay type: cell-based
# Procedure: as §1, §2
# [13] = system: Pseudomonas aeruginosa (ATCC 27883); assay type: cell-based; conditions: Table 22
# Procedure: as §1, §2
# [14] = system: MRSA; assay: In vivo Galleria Mellonella Assay (MRSA infection); conditions: MRSA-infected G. mellonella, after one week
# [15] = system: Klebsiella pneumoniae (ATCC BAA-1705); conditions: ATCC BAA-1705
# [16] = system: Methicillin-Resistant Staphylococcus aureus (MRSA); conditions: previously shown (Oh et al. 2014), listed as [W4R4]; cited from earlier work
# [17] = system: Pseudomonas aeruginosa (PA01); conditions: previously shown (Oh et al. 2014), listed as [W4R4]; cited from earlier work
# [18] = system: Methicillin-Resistant Staphylococcus aureus (MRSA); conditions: cited from earlier work
# [19] = system: E. coli; conditions: cited from earlier work
smiles,measurement,setting,value
"N=C(N)NCCC[C@H](NC(=O)[C@H](CCCNC(=N)N)NC(=O)[C@H](CCCNC(=N)N)NC(=O)[C@@H](N)CCCNC(=N)N)C(=O)N[C@@H](Cc1ccc2ccccc2c1)C(=O)N[C@@H](Cc1ccc2ccccc2c1)C(=O)N[C@@H](Cc1c[nH]c2ccccc12)C(=O)O [IFX-031-1, NH2-R-R-R-R-NaI-NaI-Trp-OH] (H-RRRR[2Nal][2Nal]W-OH)",MIC90,[1],25 µg/mL
same,MIC95,[1],25 µg/mL
same,MIC99,[1],25 µg/mL
same,MIC90,[2],25 µg/mL
same,MIC95,[2],> 50 µg/mL
same,MIC99,[2],25 µg/mL
same,MIC MRSA ATCC BAA-1556,[3],6.2 µg/mL
same,MIC S. aureus ATCC 29213,[4],6.2 µg/mL
same,MIC P. aeruginosa ATCC 27883,[5],25 µg/mL
same,MIC E. coli ATCC 25922,[6],25 µg/mL
same,HC50,[7],450
same,ability to prevent biofilm formation,[8],able to inhibit biofilm formation
same,ability to prevent biofilm formation,[9],able to inhibit biofilm formation
"N=C(N)NCCC[C@@H]1NC(=O)[C@H](CCCNC(=N)N)NC(=O)[C@H](CCCNC(=N)N)NC(=O)[C@H](Cc2c[nH]c3ccccc23)NC(=O)[C@H](Cc2c[nH]c3ccccc23)NC(=O)[C@H](Cc2c[nH]c3ccccc23)NC(=O)[C@H](Cc2c[nH]c3ccccc23)NC(=O)[C@H](CCCNC(=N)N)NC1=O [[R4W4], reference compound] (cyclo(RRRRWWWW))",E. coli (ATCC 25922) MBC,[10],32 µg/mL
same,KPC (ATCC BAA-1705) MBC,[11],64 µg/mL
same,MRSA (ATCC BAA-1556) MBC,[12],32 µg/mL
same,PSA (ATCC 27883) MBC,[13],128 µg/mL
same,larvae killed,[14],all
same,MRSA (ATCC BAA-1556) MIC,[3],4 µg/mL
same,PSA (ATCC 27883 MIC),[5],64 µg/mL
same,E. coli (ATCC 25922) MIC,[6],16 µg/mL
same,KPC (ATCC BAA-1705) MIC,[15],32 µg/mL
same,MIC,[16],2.67 μg/mL and 1.95 μM
same,MIC,[17],42.8 μg/mL and 31.3 μM
same,interaction with tetracycline in time-kill assays,[18],synergistically
same,interaction with tetracycline in time-kill assays,[19],synergistically
